Laboratory results from patent US10435415B2, “Substituted tetrahydrocarbazole and carbazole carboxamide compounds” (BRISTOL-MYERS SQUIBB COMPANY, priority 2013, dated 2019).
Where two headings read alike, the source gives them in different places.

Experiments:
human recombinant Btk = human recombinant Btk (Homo sapiens (Human), UniProt Q06187); experiment: Human Recombinant Btk Enzyme Assay; format: biochemical
[1] = test system: BCR-stimulated CD69 expression on B cells in human whole blood; experiment: Whole Blood Assay of BCR-Stimulated CD69 Expression on B Cells; format: cell-based
Jak2 tyrosine kinase = Jak2 tyrosine kinase (Homo sapiens (Human), UniProt O60674); experiment: Jak2 Tyrosine Kinase Assay; format: biochemical; settings: selectivity of Btk over Jak2
Chain of Jak2 tyrosine kinase (O60674 whole entry): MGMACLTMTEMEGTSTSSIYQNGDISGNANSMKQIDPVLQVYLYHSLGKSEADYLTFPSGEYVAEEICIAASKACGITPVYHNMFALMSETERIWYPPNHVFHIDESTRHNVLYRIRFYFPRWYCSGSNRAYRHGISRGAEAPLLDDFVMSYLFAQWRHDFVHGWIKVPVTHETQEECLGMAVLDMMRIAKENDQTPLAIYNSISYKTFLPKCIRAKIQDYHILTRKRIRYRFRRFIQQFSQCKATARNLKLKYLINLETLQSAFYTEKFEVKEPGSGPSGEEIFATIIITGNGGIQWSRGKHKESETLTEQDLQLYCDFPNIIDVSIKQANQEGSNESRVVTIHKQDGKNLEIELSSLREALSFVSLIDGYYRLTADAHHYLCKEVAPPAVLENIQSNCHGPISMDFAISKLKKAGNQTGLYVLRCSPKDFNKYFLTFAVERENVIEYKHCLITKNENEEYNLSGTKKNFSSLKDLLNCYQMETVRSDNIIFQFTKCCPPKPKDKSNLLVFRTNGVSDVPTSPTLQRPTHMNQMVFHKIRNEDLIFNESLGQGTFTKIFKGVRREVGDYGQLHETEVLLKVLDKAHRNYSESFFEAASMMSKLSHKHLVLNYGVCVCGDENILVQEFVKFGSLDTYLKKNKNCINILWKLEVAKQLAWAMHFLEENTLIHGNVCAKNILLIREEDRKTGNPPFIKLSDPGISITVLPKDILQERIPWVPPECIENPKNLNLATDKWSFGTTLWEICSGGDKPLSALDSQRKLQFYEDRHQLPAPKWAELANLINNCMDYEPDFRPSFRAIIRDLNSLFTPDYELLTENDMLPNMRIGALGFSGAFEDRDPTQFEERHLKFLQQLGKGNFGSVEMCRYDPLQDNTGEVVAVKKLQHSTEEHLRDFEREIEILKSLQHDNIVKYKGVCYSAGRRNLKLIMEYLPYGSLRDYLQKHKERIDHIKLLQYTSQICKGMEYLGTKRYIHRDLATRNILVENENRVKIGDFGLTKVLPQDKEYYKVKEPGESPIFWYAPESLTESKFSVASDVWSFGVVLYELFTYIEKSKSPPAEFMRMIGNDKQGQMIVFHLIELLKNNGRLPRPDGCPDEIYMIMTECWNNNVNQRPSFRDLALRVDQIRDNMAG

Chain of human recombinant Btk (Q06187 whole entry): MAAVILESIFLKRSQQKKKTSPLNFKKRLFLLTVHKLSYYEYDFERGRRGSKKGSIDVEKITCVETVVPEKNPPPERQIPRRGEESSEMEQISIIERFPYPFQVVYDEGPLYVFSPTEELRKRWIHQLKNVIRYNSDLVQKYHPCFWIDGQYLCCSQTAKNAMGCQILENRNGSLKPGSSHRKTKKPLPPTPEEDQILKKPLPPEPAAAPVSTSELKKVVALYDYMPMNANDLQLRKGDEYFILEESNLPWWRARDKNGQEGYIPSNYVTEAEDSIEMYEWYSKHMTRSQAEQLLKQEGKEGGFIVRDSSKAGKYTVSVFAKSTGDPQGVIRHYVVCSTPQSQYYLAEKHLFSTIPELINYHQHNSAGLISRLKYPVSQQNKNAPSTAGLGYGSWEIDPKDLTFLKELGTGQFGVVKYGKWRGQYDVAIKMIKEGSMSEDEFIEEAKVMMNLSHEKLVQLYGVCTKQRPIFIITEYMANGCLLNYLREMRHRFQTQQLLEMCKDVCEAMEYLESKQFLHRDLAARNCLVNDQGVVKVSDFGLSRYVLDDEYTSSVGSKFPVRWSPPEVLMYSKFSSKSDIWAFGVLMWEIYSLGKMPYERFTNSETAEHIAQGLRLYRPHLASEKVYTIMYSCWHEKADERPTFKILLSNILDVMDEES

Row | Compound | Ratio of Jak2/Btk IC50 values (Jak2 tyrosine kinase) | further results
1 | 3-Chloro-4-(R)-(2-chloro-3-(8-fluoro-1-methyl-2,4-dioxo-1,2-dihydroquinazolin-3(4H)-yl)phenyl)-7-(2-hydroxypropan-2-yl)-9H-carbazole-1-carboxamide [Example 45] |  | IC50 (human recombinant Btk): 0.45 nM; IC50 [1]: 68 nM
2 | Cc1c(-c2c(Cl)cc(C(N)=O)c3[nH]c4cc(C(C)(C)O)ccc4c23)cccc1-n1c(=O)[nH]c2c(F)cc(F)cc2c1=O (single isomer, unassigned) [Example 48] | 3300 | 
3 | Cc1c(-c2c(F)cc(C(N)=O)c3[nH]c4cc(C(C)(C)O)ccc4c23)cccc1-n1c(=O)[nH]c2c(F)cc(F)cc2c1=O (single isomer, unassigned) [Example 50] | 3800 | 
4 | Cc1c(-c2c(C#N)cc(C(N)=O)c3[nH]c4cc(C(C)(C)O)ccc4c23)cccc1-n1c(=O)cc2c(Cl)cccn2c1=O (single isomer, unassigned) [Example 72] | 1600 | 
5 | Cc1c(-c2c(F)cc(C(N)=O)c3[nH]c4cc(C(C)(C)O)ccc4c23)cccc1-n1c(=O)[nH]c2c(Cl)cccc2c1=O (single isomer, unassigned) [Example 54] | 3400 | IC50 ([1]; Homo sapiens, B-cell): 10 nM
6 | Cc1c(-c2c(F)cc(C(N)=O)c3[nH]c4c(c23)CC[C@H](C(C)(C)O)C4)cccc1-n1c(=O)[nH]c2c(F)cccc2c1=O (single isomer, unassigned) [Example 59] |  | IC50 [1]: 260 nM
7 | Cc1c(-c2c(F)cc(C(N)=O)c3[nH]c4cc(C(C)(C)O)ccc4c23)cccc1-n1c(=O)[nH]c2cc(F)ccc2c1=O (single isomer, unassigned) [Example 51] | >6700 | 
8 | Cc1c(-c2c(F)cc(C(N)=O)c3[nH]c4cc(C(C)(C)O)ccc4c23)cccc1-n1c(=O)[nH]c2c(F)cc(F)cc2c1=O [Example 49] | >2600 | 
9 | Cc1c(-c2c(F)cc(C(N)=O)c3[nH]c4cc(C(C)(C)O)ccc4c23)cccc1-n1c(=O)[nH]c2c(F)cc(F)cc2c1=O (single isomer, unassigned) [Example 73] | 2200 | 
